# Source: patent US20040043980A1, “Stable compositions of oxapenem-3-carboxylic acids by co-lyophilisation with pharmaceutical carriers” (priority 2000, published 2004)
# Experiments:
# Conditions in all cases: 42 days
# Escherichia coli = experiment: Shelf stability: content by plate bioassay; format: cell-based; parameters: unit not given here
# Procedure: […] The content of (5R,6R,1′R)-3-(4-amino-1,1-dimethylbutyl)-6-(1′-hydroxyethyl)-7-oxo-4-1-azabicyclo[3.2.0]hept-2-ene-2-carboxylic acid was determined by UV spectroscopy in water at λmax=262 nm (ε=5000) and by plate bioassay. The appearance of the lyophilized powder and the solubility behaviour in water were also recorded.
# The plate bioassays were carried out in sterile polystyrene dishes of 8.5 cm diameter with 10 ml of sterile Difco Nutrient Agar using Escherichia coli (inocculum ca. 10 000 cells). The inhibition diameters were compared with those obtained with 30, 25, 20, 15, 10 and 5 μg of pure title compound on a separate dish and the amount of active material calculated.
# [1] = Shelf stability: content determined by UV spectroscopy in water at 262 nm; format: physicochemical; parameters: unit not given here
# Procedure: (§1) Several samples in glass ampoules were kept without and over drying agents for 42 days in the dark at room temperature. The content of (5R,6R,1′R)-3-(4-amino-1,1-dimethylbutyl)-6-(1′-hydroxyethyl)-7-oxo-4-1-azabicyclo[3.2.0]hept-2-ene-2-carboxylic acid was determined by UV spectroscopy in water at λmax=262 nm (ε=5000) and by plate bioassay. The appearance of the lyophilized powder and the solubility behaviour in water were also recorded.
# [2] = Shelf stability: appearance of the lyophilized powder; format: physicochemical
# Procedure: as §1
# [3] = R.T., vacuum, drying agent P2O5
structure (smiles),measurement,setting,value
"C[C@@H](O)[C@H]1C(=O)N2C(C(=O)O)=C(C(C)(C)CCCN)O[C@H]12 [neat, (5R,6R,1′R)-3-(4-amino-1,1-dimethylbutyl)-6-(1′-hydroxyethyl)-7-oxo-4-oxa-1-azabicyclo[3.2.0]hept-2-ene-2-carboxylic acid]",content by bioassay,"Escherichia coli; R.T., drying agent SiO2",66
same,content by bioassay,"Escherichia coli; R.T., drying agent none",40
same,content by bioassay,Escherichia coli; [3],83
same,content by bioassay,"Escherichia coli; −80° C., drying agent none",100
same,content by UV method,"[1]; R.T., drying agent SiO2",82
same,content by UV method,"[1]; R.T., drying agent none",67
same,content by UV method,[1]; [3],76
same,content by UV method,"[1]; −80° C., drying agent none",100
same,appearance,"[2]; R.T., drying agent SiO2",yellow
same,appearance,"[2]; R.T., drying agent none",yellow
same,appearance,[2]; [3],yellow
same,appearance,"[2]; −80° C., drying agent none",white
